Laboratory results published in patent US4183910A, “Method for testing to predict and/or diagnose allergy to penicillins, and compounds and compositions for use in such tests” (priority 1978, dated 1980).

How the values were obtained:
Format in all cases: in vivo, human
[1] = test system: patients known to give positive skin test to penicillin derivatives; assay: Intradermal skin test with BPO-amines and other penicillin allergy skin test materials (Table II); conditions: for Intensity of reactions in patients: patient alpha / Skin test reaction of patient four, in words: patient four; for Skin test reaction of patient four, in words: text summary of Table II; for Intensity of reactions in patients: patient iota: patient nine; for Intensity of reactions in patients: patient epsilon: patient seven; for Intensity of reactions in patients: delta: patient six; for Intensity of reactions in patients: theta: patient two; for Intensity of reactions in patients: patient zeta: patient one; for Intensity of reactions in patients: beta: patient three; for Intensity of reactions in patients: patient gamma: patient eight
Text: Benzylpenicillin (PG) was 1.0×10^-2 M in 0.11M saline.
Sodium benzylpenicilloate plus sodium benzylpenilloate (P/P) was 1.0×10^-2 M of each dissolved in phosphate buffered saline at pH 7.5.
Benzylpenicilloyl-amine (BPO-amine) was 1.0×10^-2 M concentration phosphate buffered saline at pH 7.5.
Benzylpenicilloyl-n-propyl amine and benzylpenicilloyl-n-ethyl amine (as α-diastereoisomers) were each dissolved to 1.0×10^-2 M concentration in phosphate buffered saline at pH 7.5.
They were healthy men and women ranging in age from 23 to 56 years. Ten people negative to the skin test materials served as controls.
Using 1.0 ml tuberculin syringes with #26 needles and intradermal bevels, 0.01 ml volumes of the test materials were injected intradermally into the anterior-lateral aspects of the arms. Skin tests were read in 15 minutes. A negative reaction is the poorly outlined bleb of fluid --1-3 mm in diameter without surrounding erythema. Positive tests were sharply outlined wheals of 4-20 mm diameter with surrounding erythema. The positive tests were graded as 1+,2+,3+ and 4+ on the basis of wheal diameter. 1+=4-6 mm; 2+=7-9 mm; 3+=10-12 mm; and 4+=more than 13 mm with pseudopods. […] Skin tests were done in duplicate.

[2] = test system: patients allergic to penicillin; assay: Intradermal skin test with B8 L8 solution; conditions: Patient No. 2; B8 L8 1×10^-6 molar in tris-buffered saline pH 8.2
Procedure: (§1) The B8 L8 stock solution was diluted to 1×10^-6 molar in tris-buffered saline with a pH of 8.2, also containing ethylenediaminetetraceticacid (2×10^-4 molar) for stability. The composition was then used in skin testing. The tests were conducted by both the prick test and intradermal test methods, and the results were as follows:
Patient No. 2--intradermal test--the B8 L8 gave a 10 mm wheal and rated from 2+ to 3+ in intensity.

[3] = test system: patients allergic to penicillin; assay: Prick skin test with B8 L8 solution; conditions: Patient No. 1; B8 L8 1×10^-6 molar in tris-buffered saline pH 8.2
Procedure: as §1
Patient No. 1--prick test--B8 L8 =2+.

[4] = intradermal 0.01 ml, read in 15 minutes, BPL 1 × 10^-6 M, other materials 1 × 10^-2 M

Question: What does the source list for `CCNC(=O)C(NC(=O)Cc1ccccc1)C1NC(C(=O)O)C(C)(C)S1` (centres unmarked) [BPO-ethyl amine, benzylpenicilloyl-n-ethyl amine]?
Answer: Intensity of reactions in patients: patient alpha [1, 4]: 2+ (2+=7-9 mm); Skin test reaction of patient four, in words [1]: positive reaction; Intensity of reactions in patients: patient iota [1, 4]: 0 (A negative reaction is the poorly outlined bleb of fluid --1-3 mm in diameter without surrounding erythema); Intensity of reactions in patients: patient epsilon [1, 4]: trace; Intensity of reactions in patients: delta [1, 4]: 0 (A negative reaction is the poorly outlined bleb of fluid --1-3 mm in diameter without surrounding erythema); Intensity of reactions in patients: theta [1, 4]: 3+ (3+=10-12 mm)

Question: For `CCCNC(=O)[C@@H](NC(=O)Cc1ccccc1)[C@@H]1N[C@@H](C(=O)O)C(C)(C)S1` [BPO-propyl amine, Benzylpenicilloyl-n-propyl amine], which “Skin test reaction of patient four, in words” value [1] is on record?
Answer: Its value is “positive reaction”.

Question: And the “Intensity of reactions in patients: patient iota” value [1, 4]?
Answer: The value was 1+ (1+=4-6 mm).

Question: What about the “Intensity of reactions in patients: patient zeta” value [1, 4] of the same molecule?
Answer: Its value is 1 - 2°.

Question: And the “Intensity of reactions in patients: patient epsilon” value [1, 4]?
Answer: The value was “trace”.

Question: And the “Intensity of reactions in patients: delta” value [1, 4]?
Answer: Its value is 0 (A negative reaction is the poorly outlined bleb of fluid --1-3 mm in diameter without surrounding erythema).

Question: And the “Intensity of reactions in patients: beta” value [1, 4]?
Answer: The value was 2+ (2+=7-9 mm).

Question: Which “Intensity of reactions in patients: patient gamma” value [1, 4] does the source give for `CC1(C)S[C@@H]2[C@H](NC(=O)Cc3ccccc3)C(=O)N2[C@H]1C(=O)O` [PG, Benzylpenicillin] here?
Answer: Its value is 0 (A negative reaction is the poorly outlined bleb of fluid --1-3 mm in diameter without surrounding erythema).

Question: And the “Intensity of reactions in patients: patient eta” value ([1]; patient five, intradermal 0.01 ml, read in 15 minutes, BPL 1 × 10^-6 M, other materials 1 × 10^-2 M)?
Answer: The value was 0 (A negative reaction is the poorly outlined bleb of fluid --1-3 mm in diameter without surrounding erythema).

Question: What about the “Intensity of reactions in patients: patient alpha” value [1, 4] of the same molecule?
Answer: Its value is 0 (A negative reaction is the poorly outlined bleb of fluid --1-3 mm in diameter without surrounding erythema).

Question: And the “Intensity of reactions in patients: patient iota” value [1, 4]?
Answer: Its value is “trace”.

Question: And the “Intensity of reactions in patients: patient zeta” value [1, 4]?
Answer: Its value is 2+ (2+=7-9 mm).

Question: And the “Intensity of reactions in patients: patient epsilon” value [1, 4]?
Answer: Its value is “trace”.

Question: What about the “Intensity of reactions in patients: delta” value [1, 4] of the same molecule?
Answer: Its value is 0 (A negative reaction is the poorly outlined bleb of fluid --1-3 mm in diameter without surrounding erythema).

Question: What about the “Intensity of reactions in patients: beta” value [1, 4] of the same molecule?
Answer: The value was 1+ (1+=4-6 mm).

Question: What about the “Intensity of reactions in patients: theta” value [1, 4] of the same molecule?
Answer: Its value is 2+ (2+=7-9 mm).

Question: How did the “Wheal, intradermal test” value [2] turn out when “Benzylpenicilloyl8 -Poly-L-Lysine8 [B8 L8]” was run?
Answer: Its value is 10 mm.

Question: What about the “Prick test reaction intensity” value [3] of the same molecule?
Answer: Its value is 2+ (2+=7-9 mm).

Question: And the “Size of the wheal (diameter), prick test” value [3]?
Answer: The value was 4-5 mm.

Question: Which results are given for Benzylpenicilloyl-amine [BPO-amine]?
Answer: Intensity of reactions in patients: patient gamma [1, 4]: 1+ (1+=4-6 mm); Intensity of reactions in patients: patient alpha [1, 4]: 1+ (1+=4-6 mm); Intensity of reactions in patients: patient iota [1, 4]: 2+ (2+=7-9 mm); Intensity of reactions in patients: patient epsilon [1, 4]: trace; Intensity of reactions in patients: delta [1, 4]: 0 (A negative reaction is the poorly outlined bleb of fluid --1-3 mm in diameter without surrounding erythema)
